Peptide text beside a SMILES is read from it. * marks the point of attachment. Cbz = O=C(OCc1ccccc1)*; CHN2 = [N-]=[N+]=C*; tBu = CC(C)(C)*
Assays:
[1] = system: drug resistant osteosarcoma cells (Saos2-R); assay: Cell count of drug resistant osteosarcoma cells after siRNA or inhibitor and doxorubicin; type: cell-based; conditions: doxorubicin 10^−5 M for 48 hours, untreated 1.6e+6 AU
Excerpt: The human cathepsin L siRNA was designed in our laboratory by studying a cDNA sequence of the human cathepsin L gene (SEQ ID NO: 2). We selected a segment defined by nucleotide numbers 91-111, sent that sequence to a contract laboratory (Dharmacon, Lafayette, Colo.), which synthesized an siRNA molecule based on the aforementioned segment. The segment of the human cathepsin L cDNA we used was: […] (91-111) (SEQ ID NO: 2). On the day before transfection, 3×10^5 drug resistant osteosarcoma cells (Saos2-R) were seeded in 6-well plates and grown in 2.5 ml of DMEM supplemented with 10% FBS. After 24 hours in culture, 25 μl of 20 μM stock solution of siRNA duplexes were transfected into cells with GeneSilencer™ SiRNA Transfection Reagent Kit (Gene Therapy Systems, Inc., San Diego, Calif.). Briefly, adherent cells were transfected in 6 well plates. Cells were about 70% confluent. In one tube, 5 μl of GeneSilencer™ was mixed with 25 μl of serum free medium. In a second tube, 25 μl of siRNA diluent was mixed with […] of serum free medium and 20 μl of siRNA (100 nM). After incubation of tubes 1 and 2, at room temperature for 5 min, they were mixed together into tube 3 and incubated for an additional 5 min. The content of tube 3 was added to the cells in the 6 well plates and incubated for 2 days before the addition of the drug. After 48 hours of incubation, doxorubicin (10^−5 M) was added and maintained in culture for an additional 48 hours before analysis. The cells were counted and protein lysates were used to detect cathepsin L expression by Western blot as described above.

caspase-3 = assay: Western blot of cleaved (active) caspase-3 in SKN-SH/R cells; type: cell-based, human; conditions: cathepsin L inhibitor 10 μM + doxorubicin 10^−6M, 24 hours
Protocol: (§1) Doxorubicin resistant human neuroblastoma cells (SKN-SH/R) were subjected, in 25 cm^2 flasks, to treatment with a cathepsin L inhibitor and doxorubicin each, alone or in combination. After 24 hours of incubation, culture medium was removed and the cells washed twice with PBS. Proteins were solubilized with 150 μl of lysis buffer (50 mM HEPES pH 7.4, 150 mM NaCl, 100 mM NaF, 1 mM MgCl2, 1.5 mM EGTA, 10% glycerol, 1% Triton X100, 1 μg/ml leupeptin, 1 mM phenyl-methyl-sulfonyl-fluoride). Equal quantities of protein were separated by electrophoresis on a 12% SDS-PAGE gel and transferred to Immobilon-P membranes (Millipore, Bedford, Mass.). P21/WAF1 and cleaved (active) caspase-3 were detected by reaction with specific primary antibodies (P21/WAF1 primary antibody from Santa Cruz Biotechnologies, Santa Cruz, Calif.; and caspase-3 primary antibody from Cell Signaling Technology, Inc., Beverly, Mass.) after one hour of incubation at room temperature in PBS (pH7.4). This was followed by incubation of the membrane for 1 hour at room temperature with presence of secondary anti-Rabbit antibody linked to horseradish peroxidase (Bio-Rad Laboratories, Hercules, Calif.) (1/1000 in PBS). Reactive bands were detected by chemiluminescence.

Purified cathepsin L = molecular target: T1, Purified cathepsin L (Homo sapiens, UniProt P07711); assay: Cathepsin L activity, fluorogenic substrate (CV-Cathepsin L Detection Kit); type: biochemical; conditions: inhibitor 10 μM, 200 ng cathepsin L; positive control 4e+5 AU, negative control 0.75e+5 AU
T1 construct: purchased Biomol, Plymouth Meeting, Pa
T1 sequence (P07711 114-333, species assumed): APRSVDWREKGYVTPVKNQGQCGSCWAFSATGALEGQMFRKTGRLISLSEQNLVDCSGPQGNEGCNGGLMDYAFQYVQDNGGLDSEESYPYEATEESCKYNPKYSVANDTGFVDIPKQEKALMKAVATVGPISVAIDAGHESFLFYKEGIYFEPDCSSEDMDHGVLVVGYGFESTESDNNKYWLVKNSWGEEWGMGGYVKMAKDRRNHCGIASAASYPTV
Protocol: Cathepsin L activity was measured using a commercially available kit according to the manufacturer's procedure (CV-Cathepsin L Detection Kit; Biomol, Plymouth Meeting, Pa.). Purified cathepsin L (Biomol, Plymouth Meeting, Pa.) (200 ng) was incubated with each inhibitor (10 μM) in a 96 well plate for 15 min at room temperature in 100 μl of reaction buffer (100 mM sodium acetate pH 5, 1 mM EDTA (ethylenediaminetetraacetic acid), and 4 mM dithiothreitol). The protease inhibitors tested were: lactacystin and inhibitors of cathepsin L, B, S, and K. 100 μl of a fluorogenic substrate (CV-Cathepsin L Detection Kit; Biomol, Plymouth Meeting, Pa.) were added and incubated for an additional 30 min at room temperature. Fluorescence was measured in a plate reader (Victor Multilabel Counter, Perkin Elmer) at 380 nm excitation and […] emission wavelengths.

p21/WAF1 = assay: Western blot of p21/WAF1 in SKN-SH/R cells; type: cell-based, human; conditions: 24 hours
Protocol: as §1

[2] = system: ovarian cancer (A2780/CR); assay: cells; conditions: Homo sapiens, A2780, 192 h, read-out: percentage of viable cells, single agent
Protocol: (§7) The following additional cell lines were tested: breast cancer (MCF-7/doxR) (MCF: ATCC Cat. No. HTB-22) and ovarian cancer (A2780/CR; European collection of cell culture cat# 931112519, Salisbury, UK). Cells were treated with doxorubicin (10^−5M) and/or a cathepsin L inhibitor (25 μM) for eight days. Viable cell number was counted and normalized to 100% of non-treated cells.

[3] = system: HL-60 doxorubicin resistance cells; assay: MTT cytotoxicity assay, HL-60 doxorubicin resistant cells; type: cell-based; conditions: Homo sapiens, 96 hours, read-out: IC50 of doxorubicin alone (converted)
Protocol: (§2) Cytotoxic activity of doxorubicin and cysteine protease inhibitors were quantitatively determined by a calorimetric assay utilizing 3-(4,5-dimethyl-2-thiazolyl) 2,5-diphenyl tetrazolium bromide (MTT; Sigma-Aldrich, St. Louis, Mo.). Briefly, cells were seeded at 10^4 cells/well in 96-well plates and maintained in culture for 24 hours at 37° C. in DMEM supplemented with 10% FBS. Drugs were added to designated wells and cells were incubated for 96 hours, following which MTT (10 μL of 5 mg/ml solution) was added to each 100 μl well and incubated for 4 hours at 37° C. The cells were solubilized by incubation with 100 μl of HCl 0.5N in isopropanol for 15 hours at 37° C. The optical density of this solution was measured at 570 nm and the percentage of viable cells estimated by comparison with untreated control cells.
(§3) The effect of cathepsin L inhibitor was tested on drug sensitive and resistant (R) cell lines corresponding to various cancer types, including the human neuroblastoma cell line SKN-SH (ATCC Cat. No. HTB-11), the murine neuroblastoma cell line Neuro2A (ATCC Cat. No. CCL-131), the osteosarcoma cells Saos2 (ATCC Cat. No. HTB-85) and the leukemia cell line HL-60 (ATCC Cat. No. CCL240). The cells were treated with cathepsin L inhibitor with or without doxorubicin as described above. Cell viability was calculated after 96 hours of incubation with the drug combination. […]

SKN-SH wild type cells = assay: MTT cytotoxicity assay, SKN-SH wild type cells; type: cell-based; conditions: Homo sapiens, SK-N-SH, 96 h, read-out: IC50 of the cytotoxic agent alone
Protocol: (§4) Human neuroblastoma SKN-SH cells (ATCC Cat. No. HTB-11) were cultured in Dulbecco's Modified Eagles Medium (DMEM; Gibco, Grand Island, N.Y.) supplemented with 10% fetal bovine serum (FBS; Sigma-Aldrich, St. Louis, Mo.) at 37° C. in a 95% Air/5% CO2 atmosphere. Resistant cells to doxorubicin (SKN-SH/R) were selected by stepwise exposure to drug concentrations ranging from 10^−9 M through 10^−6 M over a time period of three months. The resulting cell line was subjected to treatment with the doxorubicin alone or in combination with: proteosome inhibitor (Lactacystin), cathepsin B inhibitor (L-3-trans-(Propylcarbamoyl)oxirane-2-carbonyl]-L-isoleucyl-L praline), cathespin L inhibitor (Z-Phe-Tyr(t-Bu)-diazomethylketone), cathespin K inhibitor (1,3-Bis(N-CBZ-Leu-NH)-2-propanonel,3 -Di(N-carbonbenzoyloxy-L-leucyl)amino acetone), or cathespin S inhibitor (Z-Phe-Leu-COCHO.H2O), (all available from Calbiochem-Novabiochem, San Diego) at 10 μM each to determine whether they affect cell response to doxorubicin.
(§5) Cytotoxic activity of doxorubicin and cysteine protease inhibitors were quantitatively determined by a calorimetric assay utilizing 3-(4,5-dimethyl-2-thiazolyl) 2,5-diphenyl tetrazolium bromide (MTT; Sigma-Aldrich, St. Louis, Mo.). […] The optical density of this solution was measured at 570 nm and the percentage of viable cells estimated by comparison with untreated control cells. […]

Neuro2A wild type = assay: MTT cytotoxicity assay, Neuro2A wild type cells; type: cell-based, murine; conditions: Mus musculus, N2a, 96 hours, read-out: IC50 of doxorubicin alone (converted)
Protocol: as §2, §3

[4] = system: Drug-sensitive cells SKN-SH; assay: Prevention of development of doxorubicin resistance, viable cell count, SKN-SH; type: cell-based, human; conditions: repeated four-day treatments with increasing doxorubicin
Excerpt: (§6) As discussed above, inhibition of cathepsin L enhanced drug response only in drug-resistant cells. Another aspect of the present invention was to determine whether treatment of drug-sensitive cancer cells with this drug combination prevents them from becoming drug resistant. […] After 4 days in culture, the surviving cells were subjected to the same treatment for an additional four days. The cells were then subjected to two subsequent treatments for four days with 2.5×10^−8 M doxorubicin with or without the cathepsin L inhibitor at 10 μM. The surviving cells were then treated with doxorubicin 5×10^−8 M doxorubicin with or without cathepsin L (10 μM) for four days. At the end of each incubation period, viable cells were counted.

[5] = system: breast cancer (MCF-7/doxR); assay: cells; conditions: Homo sapiens, MCF7, 192 h, read-out: percentage of viable cells, single agent
Protocol: as §7

SKN-SH/R cells = assay: MTT cytotoxicity assay, doxorubicin-resistant neuroblastoma cells; type: cell-based; conditions: Homo sapiens, SK-N-SH, 96 h, read-out: IC50 (concentration at which 50% of cells remained viable) of the cytotoxic agent alone, SKN-SH/R cells, agent alone (control cells), 96 hours, MTT
Protocol: as §4, §5

[6] = system: Neuro2A doxorubicin resistant cells; assay: MTT cytotoxicity assay, Neuro2A doxorubicin resistant cells; type: cell-based, murine; conditions: Mus musculus, N2a, 96 hours, read-out: IC50 of doxorubicin alone (converted)
Protocol: as §2, §3

[7] = system: Drug-sensitive cells Saos2; assay: Prevention of development of doxorubicin resistance, viable cell count, Saos2; type: cell-based; conditions: repeated four-day treatments with increasing doxorubicin
Excerpt: as §6

[8] = system: Saos2 doxorubicin resistant; assay: MTT cytotoxicity assay, Saos2 doxorubicin resistant cells; type: cell-based; conditions: Homo sapiens, SAOS-2, 96 hours, read-out: IC50 of doxorubicin alone (converted)
Protocol: as §2, §3

Saos2 wild type = assay: MTT cytotoxicity assay, Saos2 wild type cells; type: cell-based; conditions: Homo sapiens, SAOS-2, 96 hours, read-out: IC50 of doxorubicin alone (converted)
Protocol: as §2, §3

HL-60 wild type = assay: MTT cytotoxicity assay, HL-60 wild type cells; type: cell-based; conditions: Homo sapiens, 96 hours, read-out: IC50 of doxorubicin alone (converted)
Protocol: as §2, §3

[9] = system: Doxorubicin resistant human neuroblastoma cells (SKN-SH/R); assay: Tumor growth of SKN-SH/R cells injected into nude mice; type: in vivo; conditions: nude mice, i.p. on day 11, 14, 17; doxorubicin alone 1.5 mg/Kg or iCL alone 30 mg/Kg
Protocol: Doxorubicin resistant human neuroblastoma cells (SKN-SH/R) cells grown into 75 cm^2 flasks were harvested by trypsinization and centrifuged to remove trypsin. The pellet was then reconstituted in culture medium at 10^7 cell/ml. On day one, 100 μl (10^6 cells) were injected to the right flank of nude mice (5 per group) and after the tumor became palpable at day 11, mice were assigned to four groups: 1) controls (treated with the vehicle DMSO), 2) Dox. 1.5 mg/kg (treated with doxorubicin alone 1.5 mg/Kg), 3) iCL 30 mg/Kg (treated with cathepsin L inhibitor alone at 30 mg/Kg), and 4) Dox 1.5 mg/Kg+iCL 30 mg/Kg (treated with the combination of doxorubicin 1.5 mg/Kg and cathepsin L inhibitor 30 mg/Kg). Intraperetoneal injections were given on day 11, day 14, and day 17.

cathepsin L activity (arbitrary units) in presence of inhibitor (Purified cathepsin L) | SMILES | cell number, in combination with doxorubicin [1] | caspase-3 activation (Western blot), combination with doxorubicin 10^−6M (caspase-3) | expression of p21/WAF1 (Western blot), combination with doxorubicin 10^−6M (p21/WAF1; cathepsin L inhibitor 10 μM + doxorubicin 10^−6M) | expression of p21/WAF1 (Western blot), combination with doxorubicin 10^−7M (p21/WAF1; cathepsin L inhibitor 10 μM + doxorubicin 10^−7M) | viability at 25 µM [2] | IC50 [3] | IC50 (SKN-SH wild type cells) | IC50 (Neuro2A wild type) | change in percentage of viable cells over successive treatments, doxorubicin alone [4] | viability at 25 µM [5] | IC50 (SKN-SH/R cells) | IC50 [6] | effect on percentage of viable cells over successive treatments, doxorubicin alone [7] | IC50 [8] | IC50 (Saos2 wild type) | IC50 (HL-60 wild type) | average tumor volume on day 27, single agent [9]
1e+5 AU | CC(C)(C)Oc1ccc(C[C@H](NC(=O)[C@H](Cc2ccccc2)NC(=O)OCc2ccccc2)C(=O)C=[N+]=[N-])cc1 [cathepsin L inhibitor, Z-Phe-Tyr(t-Bu)-diazomethylketone] (Cbz-Phe-Tyr(tBu)-CHN2) | 2.0e+5 AU | increased caspase-3 activation | decreased expression of p21/WAF1 | enhanced expression of p21/WAF1 | – | – | – | – | – | – | – | – | – | – | – | – | –
– | COc1cccc2c1C(=O)c1c(O)c3c(c(O)c1C2=O)C[C@@](O)(C(=O)CO)C[C@@H]3O[C@H]1C[C@H](N)[C@H](O)[C@H](C)O1 [doxorubicin] | – | – | – | – | ~70% | ~31600 nM | ~1.78 nM | ~31.6 nM | no change | ~50% | ~178 nM | ~3160 nM | no affect | ~5620 nM | ~100 nM | ~56.2 nM | approximately 1600 mm^3

From patent publication US20090312277A1, “Compositions And Methods For Reversing Or Preventing Resistance Of A Cancer Cell To A Cytotoxic Agent” (priority 2004, published 2009)
